From patent publication US11813264B2, “PAR1 modulation to alter myelination” (Mayo Foundation for Medical Education and Research, priority 2014, dated 2023)

Test system: PLP and MBP RNA expression
Assay: Myelin gene expression (PLP, MBP RNA) in Oli-neu oligodendrocytes, quantitative RT-PCR
Assay type: cell-based, mouse
Details: 24 hours
Method: Oli-neu oligodendrocytes are derived from mouse primary oligodendrocyte cultures retrovirally transduced to constitutively express the t-neu oncogene (Jung et al., Eur J Neurosci 7:1245-1265, 1995). All morphology, signaling, and myelin gene expression studies using Oli-neu oligodendrocytes were performed in media containing DMEM, 1% N2, 2 mM Glutamax, 1 mM sodium pyruvate, 20 mM HEPES buffer, and 50 μM β-mercaptoethanol (Sigma Aldrich. To evaluate PAR and Klk6 gene expression in Oli-neu (Table 2), cells were differentiated by treatment with 1 mM N^6, 2′-O-dibutyryladenosine 3′, 5′-cyclic monophosphate disodium salt (dbcAMP) for 72 hours prior to harvesting for RNA isolation. All cells were maintained at 37° C. in 95% air and 5% CO2. Cell culture reagents were obtained from Life Technologies (Carlsbad, CA) unless otherwise indicated. All cell culture experiments were performed in triplicate and repeated at least twice.
Expression of oligodendrocyte PARs and Klk6-real-time quantitative PCR: Total RNA was isolated from cultured cells using RNA STAT-60 (Tel-Test, Friendswood, TX). Klk6, PAR1, or PAR2 RNA expression was determined in 0.5 μg of RNA with the iScript one-step RT-PCR kit with SYBR® Green and the iCycler iQ5 system (BioRad, Hercules, CA). Transcript copy number was determined using a standard curve prepared by parallel amplification of cDNA clones diluted to known copy number (Christophi et al., J Neurochem 91:1439-1449, 2004). Amplification of the housekeeping gene glyceraldehyde phosphate 3-dehydrogenase (GAPDH) was used to control for loading. The mean and standard error (SEM) of transcript copy number was determined and data expressed as RNA copy number on a logarithmic scale.
Regulation of oligodendrocyte myelin gene expression by PAR1 agonists: Primary murine oligodendrocytes (3 DIV) or Oli-neu oligodendrocytes were seeded at 3.5×10^5 cells/well in six-well tissue culture plates. Cells were then treated with Klk6 (30-300 nM), Klk1 (300 nM), thrombin (270 nM), or PAR1-AP (100 μM) for 24 hours prior to RNA isolation. Expression of myelin-associated genes, PLP, and MBP was examined by real-time quantitative RT-PCR. Expression levels of target genes were normalized to GAPDH and expressed as percent control.

## Klk6: Recombinant murine kallikrein-related peptidase 6 expressed using a baculovirus system
  MBP RNA: no significant suppression
  PLP RNA at 30, 150 and 300 nM: significant and equivalent PLP RNA down regulation
Klk6 300 nM, thrombin 270 nM, PAR1-AP 100 μM, Klk1 300 nM
  PLP expression: significantly diminished
